Laboratory results reported in paper PMC10895652, “Preclinical Evaluation of Novel Positron Emission Tomography (PET) Probes for Imaging Leucine-Rich Repeat Kinase 2 (LRRK2)” (Journal of Medicinal Chemistry, 2024).

Tests used:
LRRK2 [1] = target: T1, LRRK2 (Rattus norvegicus, UniProt F1LNJ1); assay: PET imaging in rats with arterial blood sampling (2TCM, VT); assay type: in vivo; details: compound 3 (1 mg/kg) i.v. prior to tracer injection
T1 construct: from tissue; host or cells: rat brain (Sprague-Dawley rats)
T1 sequence (F1LNJ1 1-2526): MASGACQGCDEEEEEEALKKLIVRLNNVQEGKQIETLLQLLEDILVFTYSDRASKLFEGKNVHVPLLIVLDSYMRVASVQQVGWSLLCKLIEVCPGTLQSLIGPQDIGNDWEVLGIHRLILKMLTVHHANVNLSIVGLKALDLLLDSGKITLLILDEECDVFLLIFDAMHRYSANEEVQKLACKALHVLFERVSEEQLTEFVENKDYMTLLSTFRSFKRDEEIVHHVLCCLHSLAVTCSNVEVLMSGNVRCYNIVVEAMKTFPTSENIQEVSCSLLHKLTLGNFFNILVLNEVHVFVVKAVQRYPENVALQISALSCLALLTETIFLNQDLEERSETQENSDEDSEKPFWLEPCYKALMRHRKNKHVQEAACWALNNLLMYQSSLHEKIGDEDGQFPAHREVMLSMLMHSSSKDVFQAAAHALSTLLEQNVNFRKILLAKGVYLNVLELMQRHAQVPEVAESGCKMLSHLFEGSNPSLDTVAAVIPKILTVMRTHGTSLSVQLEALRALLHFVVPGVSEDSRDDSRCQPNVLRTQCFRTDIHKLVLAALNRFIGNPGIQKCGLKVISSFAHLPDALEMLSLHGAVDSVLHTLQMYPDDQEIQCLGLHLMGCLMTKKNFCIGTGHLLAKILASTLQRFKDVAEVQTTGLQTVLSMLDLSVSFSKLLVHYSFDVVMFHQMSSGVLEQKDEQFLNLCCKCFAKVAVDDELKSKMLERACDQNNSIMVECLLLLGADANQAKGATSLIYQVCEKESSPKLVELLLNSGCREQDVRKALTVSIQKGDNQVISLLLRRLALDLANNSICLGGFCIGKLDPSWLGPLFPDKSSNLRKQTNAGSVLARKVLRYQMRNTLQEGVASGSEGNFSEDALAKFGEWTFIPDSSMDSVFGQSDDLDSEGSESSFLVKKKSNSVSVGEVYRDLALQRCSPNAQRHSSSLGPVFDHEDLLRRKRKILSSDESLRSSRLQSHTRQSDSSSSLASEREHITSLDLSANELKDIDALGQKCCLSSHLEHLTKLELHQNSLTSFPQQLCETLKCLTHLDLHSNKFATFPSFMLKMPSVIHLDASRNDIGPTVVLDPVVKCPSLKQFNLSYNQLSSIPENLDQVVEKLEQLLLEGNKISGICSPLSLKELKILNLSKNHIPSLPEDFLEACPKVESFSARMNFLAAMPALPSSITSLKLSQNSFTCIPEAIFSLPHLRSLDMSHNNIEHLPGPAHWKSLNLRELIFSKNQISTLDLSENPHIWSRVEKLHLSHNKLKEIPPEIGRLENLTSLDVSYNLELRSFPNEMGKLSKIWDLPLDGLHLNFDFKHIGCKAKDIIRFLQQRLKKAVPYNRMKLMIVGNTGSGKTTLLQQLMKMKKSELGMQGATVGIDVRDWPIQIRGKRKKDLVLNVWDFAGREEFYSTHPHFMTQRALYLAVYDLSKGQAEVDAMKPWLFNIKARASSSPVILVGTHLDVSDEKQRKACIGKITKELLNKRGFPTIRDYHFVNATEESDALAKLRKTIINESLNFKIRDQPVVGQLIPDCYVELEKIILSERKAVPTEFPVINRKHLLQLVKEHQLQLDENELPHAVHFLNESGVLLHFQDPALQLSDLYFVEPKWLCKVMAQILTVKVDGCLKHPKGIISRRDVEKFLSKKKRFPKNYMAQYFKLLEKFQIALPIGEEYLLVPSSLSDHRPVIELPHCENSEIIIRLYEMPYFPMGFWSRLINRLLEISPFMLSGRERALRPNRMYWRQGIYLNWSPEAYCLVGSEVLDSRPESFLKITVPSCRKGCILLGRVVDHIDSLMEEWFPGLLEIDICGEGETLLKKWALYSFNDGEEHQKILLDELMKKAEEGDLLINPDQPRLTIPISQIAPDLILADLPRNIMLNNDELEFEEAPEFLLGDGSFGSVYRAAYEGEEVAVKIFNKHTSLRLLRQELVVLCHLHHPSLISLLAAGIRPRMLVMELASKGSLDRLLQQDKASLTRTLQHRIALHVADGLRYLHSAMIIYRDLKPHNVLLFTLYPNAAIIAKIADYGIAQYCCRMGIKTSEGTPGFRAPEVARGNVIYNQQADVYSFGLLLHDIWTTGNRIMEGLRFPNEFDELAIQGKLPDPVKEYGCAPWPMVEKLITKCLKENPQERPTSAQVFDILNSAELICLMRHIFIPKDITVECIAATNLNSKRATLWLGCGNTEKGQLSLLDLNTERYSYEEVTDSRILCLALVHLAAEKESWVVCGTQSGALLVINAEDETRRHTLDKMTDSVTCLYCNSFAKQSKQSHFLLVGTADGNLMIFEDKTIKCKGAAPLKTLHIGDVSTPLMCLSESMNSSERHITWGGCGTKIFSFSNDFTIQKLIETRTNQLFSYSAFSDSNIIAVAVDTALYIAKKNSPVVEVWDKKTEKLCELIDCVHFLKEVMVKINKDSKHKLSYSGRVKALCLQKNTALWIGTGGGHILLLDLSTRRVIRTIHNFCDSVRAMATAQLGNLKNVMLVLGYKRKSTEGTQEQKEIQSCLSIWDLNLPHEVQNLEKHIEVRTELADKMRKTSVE
Protocol: (§1) The promising pharmacological, pharmacokinetic, and in vitro autoradiographic data encouraged us to carry out preliminary dynamic PET imaging studies of [^11C]3 and [^18F]4. […] Given the superiority of fluorine-18 such as clean positron emission, low positron range, and relatively long half-life compared with carbon-11, [^18F]4 was subjected to further investigation (Figure 6). A blocking scan was carried out with intravenous administration of compound 3 (1 mg/kg) prior to tracer injection. For both baseline and blocking studies, blood samples were extracted from the artery. Both whole-blood and plasma radioactivity concentrations were evaluated, and radiometabolites were measured in plasma samples by radio high-performance liquid chromatography (HPLC) to generate metabolite-corrected input function (Figure S2). Compartmental analyses with one- and two-tissue compartment models (1TCM and 2TCM) were carried out on regional time–activity curves. […] In the baseline study, VT of various brain regions ranged from 2.2 to 2.9 mL/cm^3, confirming the high binding of the radiotracer.
The general procedure for PET studies was described previously[35],[41] with minor modification in this work. […] The radioactivity was decay-corrected and expressed as the standard uptake value: SUV = (radioactivity per mL tissue/injected radioactivity) × body weight.

[2] = Radiometabolite analysis in rat plasma (radio-HPLC); assay type: in vivo; details: rats
Protocol: as §1

[3] = Ex vivo whole-body biodistribution in mice; parameters: species or system CD-1 mice; details: for Ex vivo biodistribution: mean ± SD, n = 4
Protocol: The general procedure for ex vivo biodistribution studies was described previously[35],[41] with minor modification in this work. Briefly, a solution of [^18F]4 (50 μCi/100 μL) was injected into CD-1 mice via tail vein. These mice (each time point n = 4) were sacrificed at 5, 15, 30, and 60 min post tracer injection. Major organs, including whole brain, heart, liver, lung, spleen, kidneys, small intestine (including contents), muscle, and blood samples, were quickly harvested and weighted. The radioactivity present in these tissues was measured using a Cobra Model 5002/5003 γ counter, and all radioactivity measurements were automatically decay-corrected based on the half-life of fluorine-18. The results are expressed as the percentage of injected dose per gram of wet tissue (%ID/g).

LRRK2-G2019S = assay: PET imaging in LRRK2-G2019S mutant versus wild-type mice; assay type: in vivo, mouse; details: brain, G2019S mice versus WT mice, p ≤ 0.001
Protocol: The general procedure for PET studies was described previously[35],[41] with minor modification in this work. Briefly, PET scans were carried out by a Genisys 4 PET scanner (Sofie Biosciences, Culver, CA). Mice were kept under anesthesia using 1–2% (v/v) isoflurane during the scan. The radiotracer (ca. 45 μCi/100 μL) was injected into the tail vein via a preinstalled catheter. A dynamic scan in 3D list mode was acquired for 60 min. The PET dynamic images were reconstructed using G4 software (Analysis Tools and System Setup/Diagnostics Tool, Sofie Biosciences). The radioactivity was decay-corrected and expressed as the standardized uptake value: SUV = (radioactivity per mL tissue/injected radioactivity) × body weight.

LRRK2 [4] = target: T1, LRRK2; assay: In vitro autoradiography in rat brain sections; assay type: binding
Protocol: The general procedure for autoradiography studies was described previously with minor revision in this work.[36],[40] Brain sections from rats were preincubated with Tris-HCl buffer (50 mM), MgCl2 (1.2 mM) and CaCl2 (2 mM) solution for 20 min at ambient temperature, followed by incubation with [^11C]3 and [^18F]4 (0.48 nM). […] After incubation, brain sections were rinsed with ice-cold buffer 3 times for 2 min and dipped in cold distilled water for 10 s. The brain sections were dried with cold air and then placed on imaging plates (BAS-MS2025, GE Healthcare, NJ) for optimized contact periods. Autoradiograms were obtained and regions of interest (ROIs) were carefully drawn with the reference of naked-eye observation. Radioactivity was measured using an Amersham Typhoon 5 analyzer system and expressed as photostimulated luminescence values per unit area (PSL/mm^2) or normalized to % of radioactivity vs control.

With N#Cc1cccc(-c2c[nH]c3ncnc(N4CCOCC4)c23)c1[18F] [[^18F]4] the “uptake in various brain regions after pretreatment of compound 3” value (LRRK2 [1]) was “significant decrease of uptake”, the “parent fraction in plasma” value ([2]; 30 min post tracer administration) was 38% and the “parent fraction in plasma” value ([2]; 60 min post tracer administration) was 23%. For the same compound, the de-radiofluorination in vivo ([3]; biodistribution study, up to 60 min) was “no remarkable de-radiofluorination”, the Ex vivo biodistribution ([3]; blood, 5 min) was 1.98 ± 0.08 %ID/g and the Ex vivo biodistribution ([3]; blood, 15 min) was 1.12 ± 0.16 %ID/g. The Ex vivo biodistribution ([3]; blood, 30 min) was 0.60 ± 0.08 %ID/g, the Ex vivo biodistribution ([3]; blood, 60 min) was 0.37 ± 0.09 %ID/g and the Ex vivo biodistribution ([3]; bone, 5 min) was 2.89 ± 2.05 %ID/g. For the same compound, the Ex vivo biodistribution ([3]; bone, 15 min) was 1.06 ± 0.23 %ID/g, the Ex vivo biodistribution ([3]; bone, 30 min) was 0.57 ± 0.05 %ID/g and the Ex vivo biodistribution ([3]; bone, 60 min) was 0.82 ± 0.22 %ID/g. The Ex vivo biodistribution ([3]; brain, 5 min) was 3.61 ± 0.74 %ID/g, the Ex vivo biodistribution ([3]; brain, 15 min) was 0.91 ± 0.21 %ID/g and the Ex vivo biodistribution ([3]; brain, 30 min) was 0.14 ± 0.01 %ID/g. For the same compound, the Ex vivo biodistribution ([3]; brain, 60 min) was 0.04 ± 0.01 %ID/g, the Ex vivo biodistribution ([3]; heart, 5 min) was 3.63 ± 0.10 %ID/g and the Ex vivo biodistribution ([3]; heart, 15 min) was 1.49 ± 0.17 %ID/g. For the same compound, the Ex vivo biodistribution ([3]; heart, 30 min) was 0.49 ± 0.07 %ID/g, the Ex vivo biodistribution ([3]; heart, 60 min) was 0.25 ± 0.03 %ID/g and the Ex vivo biodistribution ([3]; kidneys, 5 min) was 9.96 ± 1.01 %ID/g. It also gave an Ex vivo biodistribution ([3]; kidneys, 15 min) of 6.41 ± 0.76 %ID/g, an Ex vivo biodistribution ([3]; kidneys, 30 min) of 2.74 ± 0.12 %ID/g and an Ex vivo biodistribution ([3]; kidneys, 60 min) of 1.32 ± 0.15 %ID/g. It also gave an Ex vivo biodistribution ([3]; liver, 5 min) of 24.68 ± 10.36 %ID/g, an Ex vivo biodistribution ([3]; liver, 15 min) of 15.53 ± 2.40 %ID/g and an Ex vivo biodistribution ([3]; liver, 30 min) of 7.34 ± 0.78 %ID/g. The Ex vivo biodistribution ([3]; liver, 60 min) was 3.97 ± 1.30 %ID/g, the Ex vivo biodistribution ([3]; lungs, 5 min) was 8.88 ± 2.99 %ID/g and the Ex vivo biodistribution ([3]; lungs, 15 min) was 5.46 ± 2.28 %ID/g. For the same compound, the Ex vivo biodistribution ([3]; lungs, 30 min) was 2.86 ± 0.67 %ID/g, the Ex vivo biodistribution ([3]; lungs, 60 min) was 1.65 ± 0.35 %ID/g and the Ex vivo biodistribution ([3]; muscle, 5 min) was 2.34 ± 1.06 %ID/g. For the same compound, the Ex vivo biodistribution ([3]; muscle, 15 min) was 2.04 ± 2.24 %ID/g, the Ex vivo biodistribution ([3]; muscle, 30 min) was 0.38 ± 0.11 %ID/g and the Ex vivo biodistribution ([3]; muscle, 60 min) was 0.39 ± 0.40 %ID/g. It also gave an Ex vivo biodistribution ([3]; pancreas, 5 min) of 16.19 ± 1.99 %ID/g, an Ex vivo biodistribution ([3]; pancreas, 15 min) of 5.75 ± 2.56 %ID/g and an Ex vivo biodistribution ([3]; pancreas, 30 min) of 1.26 ± 0.25 %ID/g. For the same compound, the Ex vivo biodistribution ([3]; pancreas, 60 min) was 0.76 ± 0.55 %ID/g, the Ex vivo biodistribution ([3]; small intestine, 5 min) was 58.87 ± 18.10 %ID/g and the Ex vivo biodistribution ([3]; small intestine, 15 min) was 58.62 ± 13.63 %ID/g. It also gave an Ex vivo biodistribution ([3]; small intestine, 30 min) of 20.55 ± 17.97 %ID/g, an Ex vivo biodistribution ([3]; small intestine, 60 min) of 26.44 ± 36.34 %ID/g and an Ex vivo biodistribution ([3]; spleen, 5 min) of 4.38 ± 0.99 %ID/g. It also gave an Ex vivo biodistribution ([3]; spleen, 15 min) of 2.12 ± 1.24 %ID/g, an Ex vivo biodistribution ([3]; spleen, 30 min) of 0.52 ± 0.07 %ID/g and an Ex vivo biodistribution ([3]; spleen, 60 min) of 0.39 ± 0.29 %ID/g. For the same compound, the “initial radioactive signals in peripheral organs” value ([3]; spleen, heart, lungs, pancreas, stomach, small intestine, kidneys, liver) was over 4 %ID/g, the Ex vivo biodistribution ([3]; stomach, 5 min) was 5.72 ± 2.69 %ID/g and the Ex vivo biodistribution ([3]; stomach, 15 min) was 5.69 ± 1.06 %ID/g. The Ex vivo biodistribution ([3]; stomach, 30 min) was 7.88 ± 5.2 %ID/g, the Ex vivo biodistribution ([3]; stomach, 60 min) was 2.41 ± 1.31 %ID/g and the “increase of radioactivity accumulation based on AUC” value (LRRK2-G2019S) was “around 22%”. For the same compound, the “radioactivity levels under blocking with GNE-0877” value (LRRK2 [4]; LRRK2-deficient brain regions (cerebellum and midbrain)) was “no obvious blocking results” and the “radioactivity levels under blocking with GNE-0877” value (LRRK2 [4]; LRRK2-rich brain regions (hippocampus, cerebral cortex, striatum, thalamus)) was “significantly reduced”.
